From patent US8889875B2, “Pyridyl derivatives as CFTR modulators” (Vertex Pharmaceuticals Incorporated, priority 2008, dated 2014) come the findings set out here.

SMILES strings stand for the structures. Some results are limits rather than exact numbers.

T1 sequence (P13569 with tags, fused parts or gaps DEL508-508): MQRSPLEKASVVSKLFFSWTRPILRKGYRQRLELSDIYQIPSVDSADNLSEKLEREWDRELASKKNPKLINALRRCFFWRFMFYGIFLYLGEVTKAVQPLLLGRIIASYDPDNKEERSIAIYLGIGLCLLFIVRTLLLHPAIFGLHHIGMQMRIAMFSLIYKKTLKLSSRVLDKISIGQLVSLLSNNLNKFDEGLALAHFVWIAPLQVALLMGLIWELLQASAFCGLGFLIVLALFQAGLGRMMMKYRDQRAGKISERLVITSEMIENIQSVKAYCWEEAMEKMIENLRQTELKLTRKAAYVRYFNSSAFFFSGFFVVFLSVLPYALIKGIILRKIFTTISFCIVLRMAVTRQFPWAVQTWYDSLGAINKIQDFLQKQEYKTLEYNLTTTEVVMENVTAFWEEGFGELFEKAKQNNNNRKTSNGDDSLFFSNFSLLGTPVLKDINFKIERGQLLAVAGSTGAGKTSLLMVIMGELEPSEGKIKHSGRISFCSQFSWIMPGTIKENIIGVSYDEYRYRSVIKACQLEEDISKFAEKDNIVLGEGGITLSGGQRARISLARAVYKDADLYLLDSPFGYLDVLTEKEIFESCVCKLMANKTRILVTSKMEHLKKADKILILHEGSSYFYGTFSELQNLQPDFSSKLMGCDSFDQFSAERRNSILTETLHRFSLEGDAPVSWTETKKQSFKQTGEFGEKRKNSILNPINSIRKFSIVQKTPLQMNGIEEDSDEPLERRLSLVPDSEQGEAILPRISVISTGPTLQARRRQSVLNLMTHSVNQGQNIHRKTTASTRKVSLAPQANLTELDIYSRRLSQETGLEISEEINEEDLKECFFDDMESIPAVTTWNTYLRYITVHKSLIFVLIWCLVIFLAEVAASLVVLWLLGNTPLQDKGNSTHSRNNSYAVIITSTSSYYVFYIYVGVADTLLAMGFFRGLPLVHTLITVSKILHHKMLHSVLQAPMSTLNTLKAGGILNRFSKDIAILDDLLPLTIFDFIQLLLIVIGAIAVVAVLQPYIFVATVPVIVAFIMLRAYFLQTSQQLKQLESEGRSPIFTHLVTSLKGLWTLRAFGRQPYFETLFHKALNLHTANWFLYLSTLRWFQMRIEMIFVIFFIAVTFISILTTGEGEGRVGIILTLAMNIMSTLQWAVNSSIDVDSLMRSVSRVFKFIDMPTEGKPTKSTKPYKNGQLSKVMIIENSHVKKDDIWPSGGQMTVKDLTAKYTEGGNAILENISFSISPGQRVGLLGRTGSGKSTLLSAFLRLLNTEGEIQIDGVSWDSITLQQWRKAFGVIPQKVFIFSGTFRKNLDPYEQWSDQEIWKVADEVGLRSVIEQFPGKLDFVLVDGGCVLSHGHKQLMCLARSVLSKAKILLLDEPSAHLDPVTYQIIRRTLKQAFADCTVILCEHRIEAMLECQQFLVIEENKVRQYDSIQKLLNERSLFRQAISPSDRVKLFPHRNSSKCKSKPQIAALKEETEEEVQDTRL

The experiment addresses T1, ΔF508-CFTR (Homo sapiens, UniProt P13569, DEL508-508).
T1 construct: expressed in transfected cells
Put plainly: Membrane potential optical assay, identification of correction compounds (single-addition HTS format). The experiment is classed as cell-based. The settings on record: PercentActivity; ΔF508-CFTR in NIH3T3 mouse fibroblasts; 16-24 hrs with compound; 10 μM forskolin and 20 μM genistein; read-out: BinnedMaxEfficacy. From the text: Membrane Potential Optical Methods for Assaying ΔF508-CFTR Modulation Properties of Compounds.
The assay utilizes fluorescent voltage sensing dyes to measure changes in membrane potential using a fluorescent plate reader (e.g., FLIPR III, Molecular Devices, Inc.) as a readout for increase in functional ΔF508-CFTR in NIH 3T3 cells. The driving force for the response is the creation of a chloride ion gradient in conjunction with channel activation by a single liquid addition step after the cells have previously been treated with compounds and subsequently loaded with a voltage sensing dye.
To identify small molecules that correct the trafficking defect associated with ΔF508-CFTR; a single-addition HTS assay format was developed. Assay Plates containing cells are incubated for ˜2-4 hours in tissue culture incubator at 37° C., 5% CO2, 90% humidity. Cells are then ready for compound exposure after adhering to the bottom of the assay plates.
The cells were incubated in serum-free medium for 16-24 hrs in tissue culture incubator at 37° C., 5% CO2, 90% humidity in the presence or absence (negative control) of test compound. The cells were subsequently rinsed 3× with Krebs Ringers solution and loaded with a voltage sensing redistribution dye. To activate ΔF508-CFTR, 10 μM forskolin and the CFTR potentiator, genistein (20 μM), were added along with Cl^−-free medium to each well. The addition of Cl^−-free medium promoted Cl^− efflux in response to ΔF508-CFTR activation and the resulting membrane depolarization was optically monitored using voltage sensor dyes.
Bath Solution #1: (in mM) NaCl 160, KCl 4.5, CaCl2 2, MgCl2 1, HEPES 10, pH 7.4 with NaOH.
Chloride-free bath solution: Chloride salts in Bath Solution #1 are substituted with gluconate salts.
NIH3T3 mouse fibroblasts stably expressing ΔF508-CFTR are used for optical measurements of membrane potential. The cells are maintained at 37° C. in 5% CO2 and 90% humidity in Dulbecco's modified Eagle's medium supplemented with 2 mM glutamine, 10% fetal bovine serum, 1×NEAA, β-ME, 1×pen/strep, and 25 mM HEPES in 175 cm^2 culture flasks. For all optical assays, the cells were seeded at ˜20,000/well in 384-well matrigel-coated plates and cultured for 2 hrs at 37° C. before culturing at 27° C. for 24 hrs. for the potentiator assay. For the correction assays, the cells are cultured at 27° C. or 37° C. with and without compounds for 16-24 hours.
Turning to `COc1ccccc1C(=O)c1ccc(NC(=O)C2(c3ccccc3OC)CC2)nc1` [Compound 1], the Emax was in the range of 25 to 100%.
The value for `CCc1ccnc(NC(=O)C2(c3ccc4c(c3)OCO4)CC2)c1` [Compound 2] was more than 100%.
In the case of `COc1ccc(Cc2cccc(NC(=O)C3(c4ccc5c(c4)OCO5)CC3)n2)cc1` [Compound 3], the Emax is more than 100%.
With `COc1ccccc1Cc1ccc(NC(=O)C2(c3ccc(OC(F)(F)F)cc3)CC2)nc1` [Compound 4] the figure was more than 100%.
With `Cc1ccccc1Cc1cccc(NC(=O)C2(c3ccc4c(c3)OCO4)CC2)n1` [Compound 5] the figure was more than 100%; with `NC(=O)c1ccc(NC(=O)C2(c3ccc4c(c3)OCO4)CC2)nc1` [Compound 6], 25 to 100%.
With `CCN(CC)C(c1ccc(NC(=O)C2(c3ccc4c(c3)OCO4)CC2)nc1)c1ccccc1OC` (stereo not drawn) [Compound 7] the figure was more than 100%; with `COc1ccc(C2(C(=O)Nc3ccc(Cc4ccccc4OC)cn3)CC2)cc1` [Compound 8], 25 to 100%; with `COc1ccccc1C(c1ccc(NC(=O)C2(c3ccc4c(c3)OCO4)CC2)nc1)N1CCCC1` (stereo not drawn) [Compound 9], more than 100%.
For the compound `COc1ccccc1Cc1ccc(NC(=O)C2(c3ccc(OC)c(OC)c3)CC2)nc1` [Compound 10], the Emax was 25 to 100%.
The value for `COc1ccccc1C(OCCN1CCOCC1)c1ccc(NC(=O)C2(c3ccc4c(c3)OCO4)CC2)nc1` (stereo not drawn) [Compound 11] was more than 100%.
For `COc1ccc(C2(C(=O)Nc3ccc(C(=O)c4ccccc4OC)cn3)CC2)cc1OC` [Compound 12], the Emax is 25 to 100%.
The value for `COc1ccccc1Cc1ccc(NC(=O)C2(c3ccccc3OC)CC2)nc1` [Compound 13] was 25 to 100%; that for `O=C(c1ccccc1)c1ccc(NC(=O)C2(c3ccc4c(c3)OCO4)CC2)nc1` [Compound 14] was more than 100%; that for `O=C(Nc1ccc(CC2CCCCC2)cn1)C1(c2ccc3c(c2)OCO3)CC1` [Compound 16] was more than 100%.
For the compound `O=C(Nc1ccc(C(F)(F)F)cn1)C1(c2ccc3c(c2)OCO3)CC1` [Compound 17], the Emax was in the range of 25 to 100%.
With `COc1ccccc1C(OCCN(C(C)C)C(C)C)c1ccc(NC(=O)C2(c3ccc4c(c3)OCO4)CC2)nc1` (stereo not drawn) [Compound 18] the figure was 25 to 100%.
With `CCc1cccc(NC(=O)C2(c3ccc(OC)cc3)CC2)n1` [Compound 19] the figure was 25 to 100%; with `COc1ccccc1C(c1ccc(NC(=O)C2(c3ccc4c(c3)OCO4)CC2)nc1)N(C)C` (stereo not drawn) [Compound 20], more than 100%.
In the case of `Cc1ccnc(NC(=O)C2(c3ccc4c(c3)OCO4)CC2)c1` [Compound 21], the Emax was more than 100%.
With `COCCN1CCN(C(c2ccc(NC(=O)C3(c4ccc5c(c4)OCO5)CC3)nc2)c2ccccc2OC)CC1` (stereo not drawn) [Compound 22] the figure was 25 to 100%.
With `COc1ccccc1C(c1ccc(NC(=O)C2(c3ccc4c(c3)OCO4)CC2)nc1)N1CC(C)OC(C)C1` (stereo not drawn) [Compound 23] the figure was more than 100%.
With `O=C(Nc1ccc(Cc2c(Cl)cccc2Cl)cn1)C1(c2ccc3c(c2)OCO3)CC1` [Compound 24] the figure was more than 100%; with `COc1ccc(C2(C(=O)Nc3ccccn3)CC2)cc1` [Compound 25], 25 to 100%.
`CCc1cccc(NC(=O)C2(c3ccc4c(c3)OCO4)CC2)n1` [Compound 26]: the Emax is more than 100%.
With `COc1ccccc1C(=O)c1ccc(NC(=O)C2(c3ccc4c(c3)OCO4)CC2)nc1` [Compound 27] the figure was more than 100%.
With `COc1ccc(C2(C(=O)Nc3ccc(C(=O)c4ccccc4OC)cn3)CC2)cc1` [Compound 28] the figure was more than 100%; with `CC(C)Cc1ccc(NC(=O)C2(c3ccc4c(c3)OCO4)CC2)nc1` [Compound 29], more than 100%; with `COc1ccccc1C(=O)c1ccc(NC(=O)C2(c3ccc(OC(F)(F)F)cc3)CC2)nc1` [Compound 30], 25 to 100%.
As for `COc1ccccc1Cc1ccc(NC(=O)C2(c3ccc(C)cc3)CC2)nc1` [Compound 31], the Emax lay within 25 to 100%.
With `COc1ccccc1C(c1ccc(NC(=O)C2(c3ccc4c(c3)OCO4)CC2)nc1)N1CCCCC1` (stereo not drawn) [Compound 32] the figure was more than 100%.
The value for `CCCOC(c1ccc(NC(=O)C2(c3ccc4c(c3)OCO4)CC2)nc1)c1ccccc1OC` (stereo not drawn) [Compound 33] was more than 100%.
The value for `COc1cccc(C2(C(=O)Nc3ccc(Cc4ccccc4OC)cn3)CC2)c1` [Compound 34] was 25 to 100%; that for `COc1ccccc1Cc1ccc(NC(=O)C2(c3ccc4c(c3)OCO4)CC2)nc1` [Compound 35] was more than 100%; that for `COCC1CCCN1C(c1ccc(NC(=O)C2(c3ccc4c(c3)OCO4)CC2)nc1)c1ccccc1OC` (stereo not drawn) [Compound 36] was more than 100%.
As to `COc1ccccc1C(=O)c1ccc(NC(=O)C2(c3ccc(SC)cc3)CC2)nc1` [Compound 37], the Emax is more than 100%.
In the case of `COc1ccc(C2(C(=O)Nc3ccc(C)cn3)CC2)cc1` [Compound 38], the Emax was 25 to 100%.
The value for `COc1ccccc1C(c1ccc(NC(=O)C2(c3ccc4c(c3)OCO4)CC2)nc1)N1CCN(CCO)CC1` (stereo not drawn) [Compound 39] was 25 to 100%; that for `Cc1ccc(NC(=O)C2(c3ccc4c(c3)OC(F)(F)O4)CC2)nc1` [Compound 40] was more than 100%.
The value for `O=C(Nc1ncccc1OCc1ccccc1)C1(c2ccccc2)CC1` [Compound 41] was 25 to 100%; that for `Cc1ccc(NC(=O)C2(c3ccc4c(c3)OCO4)CC2)nc1` [Compound 42] was more than 100%; that for `CCc1ccc(C)nc1NC(=O)C1(c2ccc3c(c2)OCO3)CC1` [Compound 43] was 25 to 100%.
The value for `COc1ccccc1C(O)c1ccc(NC(=O)C2(c3ccc4c(c3)OCO4)CC2)nc1` (stereo not drawn) [Compound 44] was more than 100%; that for `COc1ccccc1C(c1ccc(NC(=O)C2(c3ccc4c(c3)OCO4)CC2)nc1)N1CCCC1C(N)=O` (stereo not drawn) [Compound 45] was more than 100%.
As for `COc1ccccc1Cc1ccc(NC(=O)C2(c3ccc(Cl)cc3)CC2)nc1` [Compound 46], the Emax is more than 100%.
As for `O=C(Nc1ccc(F)cn1)C1(c2ccc3c(c2)OCO3)CC1` [Compound 47], the Emax was more than 100%.
With `O=C(Nc1ncccc1OCc1ccccc1)C1(c2ccc3c(c2)OCO3)CC1` [Compound 48], the Emax fell in the range of 25 to 100%.
With `COc1ccccc1C(c1ccc(NC(=O)C2(c3ccc4c(c3)OCO4)CC2)nc1)N1CCOCC1` (stereo not drawn) [Compound 49] the figure was more than 100%; with `Cc1cnc(NC(=O)C2(c3ccc4c(c3)OC(F)(F)O4)CC2)cc1-c1cccc(C(=O)O)c1` [Compound 50], 25 to 100%.
On to `COC[C@@H]1CCCN1C(c1ccc(NC(=O)C2(c3ccc4c(c3)OCO4)CC2)nc1)c1ccccc1OC` (stereo partly drawn) [Compound 51], for which the Emax was more than 100%.
With `COc1ccccc1Nc1ccc(NC(=O)C2(c3ccc4c(c3)OCO4)CC2)nc1` [Compound 52] the figure was more than 100%.
Turning to `CNC(c1ccc(NC(=O)C2(c3ccc4c(c3)OCO4)CC2)nc1)c1ccccc1OC` (stereo not drawn) [Compound 53], the Emax was more than 100%.
With `COc1ccc(C2(C(=O)Nc3cccc(C)n3)CC2)cc1` [Compound 54] the figure was 25 to 100%; with `COc1ccccc1C(c1ccc(NC(=O)C2(c3ccc4c(c3)OCO4)CC2)nc1)N1CC[C@@H](O)C1` (stereo partly drawn) [Compound 55], more than 100%.
With `CC(C)Cc1cccc(NC(=O)C2(c3ccc4c(c3)OCO4)CC2)n1` [Compound 56] the figure was more than 100%.
The value for `COc1ccccc1C(OCCO)c1ccc(NC(=O)C2(c3ccc4c(c3)OCO4)CC2)nc1` (stereo not drawn) [Compound 57] was more than 100%; that for `COc1ccccc1C(c1ccc(NC(=O)C2(c3ccc4c(c3)OCO4)CC2)nc1)N1CCC(O)CC1` (stereo not drawn) [Compound 58] was more than 100%.
For `O=C(Nc1ccc(Cc2ccccc2Cl)cn1)C1(c2ccc3c(c2)OCO3)CC1` [Compound 59], the Emax was more than 100%.
With `COc1ccc(Cc2ccc(NC(=O)C3(c4ccc5c(c4)OCO5)CC3)nc2)cc1` [Compound 60] the figure was more than 100%; with `CCc1cccc(NC(=O)C2(c3ccccc3)CC2)n1` [Compound 61], 25 to 100%.
The value for `CCN(C)C(c1ccc(NC(=O)C2(c3ccc4c(c3)OCO4)CC2)nc1)c1ccccc1OC` (stereo not drawn) [Compound 62] was more than 100%; that for `O=C(Nc1ccc(Cc2ccccc2)cn1)C1(c2ccc3c(c2)OCO3)CC1` [Compound 63] was more than 100%; that for `COc1ccccc1Nc1cccc(NC(=O)C2(c3ccc4c(c3)OCO4)CC2)n1` [Compound 64] was 25 to 100%.
